From ChEMBL document CHEMBL1146863, “1,4-Dihydroindeno[1,2-c]pyrazoles as novel multitargeted receptor tyrosine kinase inhibitors” (Bioorg Med Chem Lett, 2006)

Columns and labels:
[1] = target: Vascular endothelial growth factor receptor 1 (Homo sapiens, UniProt P17948)
[2] = target: Mast/stem cell growth factor receptor Kit (Homo sapiens, UniProt P10721)
[3] = target: Vascular endothelial growth factor receptor 2 (Homo sapiens, UniProt P35968)
[4] = target: Angiopoietin-1 receptor (Homo sapiens, UniProt Q02763); assay: Inhibition of Tie2 at 1 mM ATP by HTRF assay
[5] = target: Cytochrome P450 3A4 (Homo sapiens, UniProt P08684); assay: Inhibition of CYP3A4 in human liver microsome; assay type: ADME
Chain of Cytochrome P450 3A4 (P08684 whole entry): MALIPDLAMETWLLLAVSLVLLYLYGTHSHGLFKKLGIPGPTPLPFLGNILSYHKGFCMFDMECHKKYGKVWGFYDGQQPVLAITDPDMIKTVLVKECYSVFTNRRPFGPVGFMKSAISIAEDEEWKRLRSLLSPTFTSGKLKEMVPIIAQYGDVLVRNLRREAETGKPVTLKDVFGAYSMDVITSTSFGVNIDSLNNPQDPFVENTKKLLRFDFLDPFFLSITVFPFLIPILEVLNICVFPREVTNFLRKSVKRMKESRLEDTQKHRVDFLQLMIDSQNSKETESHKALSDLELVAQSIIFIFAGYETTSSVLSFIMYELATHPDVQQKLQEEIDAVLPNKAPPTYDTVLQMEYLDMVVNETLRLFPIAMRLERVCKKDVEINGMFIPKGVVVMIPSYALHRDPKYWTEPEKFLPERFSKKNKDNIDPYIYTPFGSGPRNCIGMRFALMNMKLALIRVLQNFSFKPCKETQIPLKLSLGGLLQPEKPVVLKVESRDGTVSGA

Chain of Vascular endothelial growth factor receptor 2 (P35968 whole entry): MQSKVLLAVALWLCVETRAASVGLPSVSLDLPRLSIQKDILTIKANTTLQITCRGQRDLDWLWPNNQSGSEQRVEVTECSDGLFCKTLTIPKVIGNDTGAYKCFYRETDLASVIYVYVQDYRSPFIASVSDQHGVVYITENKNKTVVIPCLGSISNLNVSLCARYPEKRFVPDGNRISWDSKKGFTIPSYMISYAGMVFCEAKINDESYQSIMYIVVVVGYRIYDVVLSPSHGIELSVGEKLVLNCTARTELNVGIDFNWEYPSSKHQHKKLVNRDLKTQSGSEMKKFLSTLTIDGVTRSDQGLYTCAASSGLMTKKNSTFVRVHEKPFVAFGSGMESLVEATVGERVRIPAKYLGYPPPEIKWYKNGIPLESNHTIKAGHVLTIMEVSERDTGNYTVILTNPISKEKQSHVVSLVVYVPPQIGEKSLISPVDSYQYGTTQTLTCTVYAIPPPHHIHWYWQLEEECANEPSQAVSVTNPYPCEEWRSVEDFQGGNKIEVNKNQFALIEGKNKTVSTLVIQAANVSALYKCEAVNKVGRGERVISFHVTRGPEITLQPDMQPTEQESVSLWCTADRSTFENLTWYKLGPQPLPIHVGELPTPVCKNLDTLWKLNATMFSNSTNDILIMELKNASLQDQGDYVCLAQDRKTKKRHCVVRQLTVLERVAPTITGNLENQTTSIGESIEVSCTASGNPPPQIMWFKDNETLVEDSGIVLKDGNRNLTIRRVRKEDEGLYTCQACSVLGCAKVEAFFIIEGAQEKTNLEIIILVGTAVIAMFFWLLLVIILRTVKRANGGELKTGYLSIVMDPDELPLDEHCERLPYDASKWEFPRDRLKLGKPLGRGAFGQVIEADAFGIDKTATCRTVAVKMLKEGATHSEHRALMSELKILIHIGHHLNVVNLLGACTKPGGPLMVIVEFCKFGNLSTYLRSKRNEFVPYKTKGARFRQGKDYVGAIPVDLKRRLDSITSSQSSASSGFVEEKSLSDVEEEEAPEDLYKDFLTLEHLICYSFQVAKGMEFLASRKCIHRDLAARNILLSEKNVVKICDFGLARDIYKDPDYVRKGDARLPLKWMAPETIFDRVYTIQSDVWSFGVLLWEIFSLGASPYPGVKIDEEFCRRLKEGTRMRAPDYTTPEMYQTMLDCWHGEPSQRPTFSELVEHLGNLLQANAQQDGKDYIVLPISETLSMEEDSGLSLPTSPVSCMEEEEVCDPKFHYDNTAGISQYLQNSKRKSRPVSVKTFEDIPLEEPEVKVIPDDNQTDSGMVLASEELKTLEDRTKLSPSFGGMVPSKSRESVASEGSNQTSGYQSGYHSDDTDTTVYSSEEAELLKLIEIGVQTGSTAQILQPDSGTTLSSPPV
Chain of Mast/stem cell growth factor receptor Kit (P10721 whole entry): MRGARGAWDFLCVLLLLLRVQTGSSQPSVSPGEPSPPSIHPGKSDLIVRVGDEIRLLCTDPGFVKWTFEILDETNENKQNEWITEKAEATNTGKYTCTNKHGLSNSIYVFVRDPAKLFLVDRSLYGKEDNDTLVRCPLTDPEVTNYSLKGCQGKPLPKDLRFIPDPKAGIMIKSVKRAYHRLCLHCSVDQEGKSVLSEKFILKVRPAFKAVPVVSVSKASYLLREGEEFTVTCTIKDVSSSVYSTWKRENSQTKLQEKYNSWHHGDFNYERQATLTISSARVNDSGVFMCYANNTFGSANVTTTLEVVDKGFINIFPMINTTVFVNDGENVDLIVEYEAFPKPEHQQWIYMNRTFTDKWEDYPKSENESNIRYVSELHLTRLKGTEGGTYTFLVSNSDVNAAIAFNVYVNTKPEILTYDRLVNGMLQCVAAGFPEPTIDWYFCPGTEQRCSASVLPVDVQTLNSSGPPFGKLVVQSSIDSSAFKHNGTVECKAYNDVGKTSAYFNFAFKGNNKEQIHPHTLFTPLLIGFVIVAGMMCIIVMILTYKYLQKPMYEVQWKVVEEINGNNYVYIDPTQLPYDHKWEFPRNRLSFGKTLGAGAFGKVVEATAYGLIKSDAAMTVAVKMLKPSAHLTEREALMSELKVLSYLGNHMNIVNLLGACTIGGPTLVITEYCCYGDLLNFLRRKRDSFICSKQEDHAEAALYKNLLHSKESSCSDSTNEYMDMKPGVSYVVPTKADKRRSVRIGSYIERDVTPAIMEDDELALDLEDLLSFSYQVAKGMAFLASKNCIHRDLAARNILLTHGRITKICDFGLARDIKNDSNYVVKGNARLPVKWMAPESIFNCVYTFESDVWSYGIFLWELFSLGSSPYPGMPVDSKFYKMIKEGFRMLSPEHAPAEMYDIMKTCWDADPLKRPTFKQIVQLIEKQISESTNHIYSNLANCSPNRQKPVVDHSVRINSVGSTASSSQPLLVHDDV
Chain of Vascular endothelial growth factor receptor 1 (P17948 whole entry): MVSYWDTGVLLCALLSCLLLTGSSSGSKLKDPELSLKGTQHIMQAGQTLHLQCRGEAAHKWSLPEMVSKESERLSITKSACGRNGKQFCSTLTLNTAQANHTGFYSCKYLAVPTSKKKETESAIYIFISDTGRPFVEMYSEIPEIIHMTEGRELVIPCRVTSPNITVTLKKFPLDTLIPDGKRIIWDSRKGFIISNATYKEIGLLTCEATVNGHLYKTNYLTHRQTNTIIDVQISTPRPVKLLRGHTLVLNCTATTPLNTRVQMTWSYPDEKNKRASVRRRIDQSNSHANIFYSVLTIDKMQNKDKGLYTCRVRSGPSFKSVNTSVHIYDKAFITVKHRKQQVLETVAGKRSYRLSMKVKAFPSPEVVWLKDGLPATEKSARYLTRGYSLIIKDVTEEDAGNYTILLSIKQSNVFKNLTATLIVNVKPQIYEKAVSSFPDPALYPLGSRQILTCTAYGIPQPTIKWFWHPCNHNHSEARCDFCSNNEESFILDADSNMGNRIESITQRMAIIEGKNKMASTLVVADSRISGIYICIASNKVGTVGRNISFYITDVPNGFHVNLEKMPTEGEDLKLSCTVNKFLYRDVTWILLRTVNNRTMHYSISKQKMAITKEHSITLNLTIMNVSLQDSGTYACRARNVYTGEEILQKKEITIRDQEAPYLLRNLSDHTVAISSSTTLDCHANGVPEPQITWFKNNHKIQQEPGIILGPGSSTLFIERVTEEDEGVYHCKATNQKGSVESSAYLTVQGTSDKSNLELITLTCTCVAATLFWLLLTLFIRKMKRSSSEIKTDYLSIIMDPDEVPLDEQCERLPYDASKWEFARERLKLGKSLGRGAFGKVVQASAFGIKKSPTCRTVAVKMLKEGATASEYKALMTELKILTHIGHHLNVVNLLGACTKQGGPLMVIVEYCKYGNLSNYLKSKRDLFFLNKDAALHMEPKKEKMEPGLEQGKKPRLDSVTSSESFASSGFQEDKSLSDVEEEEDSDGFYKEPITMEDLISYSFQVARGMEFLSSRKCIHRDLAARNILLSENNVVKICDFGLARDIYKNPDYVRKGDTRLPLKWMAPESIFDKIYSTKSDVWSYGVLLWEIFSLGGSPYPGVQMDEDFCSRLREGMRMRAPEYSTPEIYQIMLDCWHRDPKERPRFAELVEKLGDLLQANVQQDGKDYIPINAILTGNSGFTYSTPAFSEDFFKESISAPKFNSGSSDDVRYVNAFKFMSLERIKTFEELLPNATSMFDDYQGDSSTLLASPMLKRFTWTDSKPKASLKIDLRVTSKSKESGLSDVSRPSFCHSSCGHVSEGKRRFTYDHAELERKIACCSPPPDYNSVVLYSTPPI

Row | SMILES | IC50 [1] [nM] | IC50 [2] [nM] | IC50 [3] [nM] | IC50 [4] [nM] | IC50 [5] [nM]
1 | CN1CCN(Cc2ccc3c(c2)Cc2c-3n[nH]c2-c2ccc(CNC(=O)Nc3ccccc3C(F)(F)F)s2)CC1 | > 50000 | 23800 |  |  | 
2 | CON(Cc1ccc(-c2[nH]nc3c2Cc2cc(CN4CCN(C)CC4)ccc2-3)s1)C(=O)Nc1cccc(C)c1 | 1350 | 237 |  |  | 
3 | Cc1ccccc1NC(=O)NCc1ccc(-c2[nH]nc3c2Cc2cc(CN4CCN(C)CC4)ccc2-3)s1 | 25000 | 1390 |  |  | 
4 | Cc1ccccc1NC(=O)NCc1ccc(-c2[nH]nc3c2Cc2ccc(CN4CCN(C)CC4)cc2-3)s1 | 2060 | 674 |  |  | 
5 | Cc1cccc(NC(=O)N(Cc2ccc(-c3[nH]nc4c3Cc3cc(CN5CCN(C)CC5)ccc3-4)s2)C(C)C)c1 | 2820 | 9750 |  |  | 
6 | Cc1cccc(NC(=O)N(C)Cc2ccc(-c3[nH]nc4c3Cc3cc(CN5CCN(C)CC5)ccc3-4)s2)c1 | 4720 | 14700 |  |  | 
7 | Cc1ccc2nc(NCc3ccc(-c4[nH]nc5c4Cc4cc(CN6CCN(C)CC6)ccc4-5)s3)[nH]c2c1 |  |  | > 50000 |  | 
8 | CN1CCN(Cc2ccc3c(c2)Cc2c(-c4ccc(CNC(=O)Nc5ccccc5Cl)s4)n[nH]c2-3)CC1 |  | 921 |  |  | 
9 | CCN(Cc1ccc(-c2[nH]nc3c2Cc2cc(CN4CCN(C)CC4)ccc2-3)s1)C(=O)Nc1cccc(C)c1 | 131 | 2190 |  |  | 
10 | Cc1cccc(N/C(=N/Cc2ccc(-c3n[nH]c4c3Cc3cc(CN5CCN(C)CC5)ccc3-4)s2)NC#N)c1 |  |  | > 50000 |  | 
11 | Cc1cccc(NC(=O)N(CCC(C)C)Cc2ccc(-c3[nH]nc4c3Cc3cc(CN5CCN(C)CC5)ccc3-4)s2)c1 | 3620 | 4840 |  |  | 
12 | CN1CCN(Cc2ccc3c(c2)Cc2c-3n[nH]c2-c2csc(CNS(=O)(=O)Cc3ccccc3)c2)CC1 |  |  | > 50000 |  | 
13 | COCCN(Cc1ccc(-c2[nH]nc3c2Cc2cc(CN4CCN(C)CC4)ccc2-3)s1)C(=O)Nc1cccc(C)c1 | 2260 | > 50000 |  |  | 
14 | CN1CCN(Cc2ccc3c(c2)-c2[nH]nc(-c4ccsc4)c2C3)CC1 |  |  |  |  | > 10000
15 | Cc1cccc(NC(=O)N(Cc2ccc(-c3[nH]nc4c3Cc3cc(CN5CCN(C)CC5)ccc3-4)s2)C2CC2)c1 | 38 | 136 |  |  | 
16 | Cc1cccc(N(C)C(=O)NCc2ccc(-c3[nH]nc4c3Cc3cc(CN5CCN(C)CC5)ccc3-4)s2)c1 | 14600 | 139 |  |  | 
17 | Cc1cccc(NC(=O)N(Cc2ccc(-c3[nH]nc4c3Cc3cc(CN5CCN(C)CC5)ccc3-4)s2)CC(C)C)c1 | 1590 | 17200 |  |  | 
18 | CN1CCN(Cc2ccc3c(c2)Cc2c-3n[nH]c2-c2ccc(CN(C)C(=O)Nc3ccccc3Cl)s2)CC1 | 3840 | > 50000 |  |  | 
19 | c1cn(Cc2ccc3c(c2)-c2[nH]nc(-c4ccsc4)c2C3)cn1 |  |  | 147 |  | 254
20 | Cc1cccc(N(C)C(=O)N(C)Cc2ccc(-c3[nH]nc4c3Cc3cc(CN5CCN(C)CC5)ccc3-4)s2)c1 | 27900 | 26800 |  |  | 

Continued, values first:

Row | IC50 [1] [nM] | IC50 [2] [nM] | IC50 [3] [nM] | IC50 [4] [nM] | IC50 [5] [nM] | SMILES
21 | 2280 | 38 |  |  |  | CN1CCN(Cc2ccc3c(c2)Cc2c(-c4ccc(CNC(=O)Nc5cc(Cl)cc(Cl)c5)s4)n[nH]c2-3)CC1
22 | 592 | 69 |  |  |  | Cc1cccc(NC(=O)NCc2ccc(-c3n[nH]c4c3Cc3ccc(CN5CCN(C)CC5)cc3-4)s2)c1
23 | 3780 | 101 |  |  |  | CN1CCN(Cc2ccc3c(c2)-c2[nH]nc(-c4ccc(CNC(=O)Nc5ccccc5)s4)c2C3)CC1
24 | 19 | 56 |  |  |  | CN1CCN(Cc2ccc3c(c2)Cc2c-3n[nH]c2-c2ccc(CN(C)C(=O)Nc3cccc(OC(F)(F)F)c3)s2)CC1
25 | 44 | 96 |  |  |  | Cc1cccc(NC(=O)N(C)Cc2ccc(-c3n[nH]c4c3Cc3ccc(CN5CCN(C)CC5)cc3-4)s2)c1
26 | 38 | 17 |  |  |  | CN1CCN(Cc2ccc3c(c2)-c2n[nH]c(-c4ccc(CN(C)C(=O)Nc5ccc(Br)cc5)s4)c2C3)CC1
27 | 613 | 27 |  |  |  | Cc1ccc(NC(=O)NCc2ccc(-c3n[nH]c4c3Cc3ccc(CN5CCN(C)CC5)cc3-4)s2)cc1
28 | 4200 | 13 |  |  |  | CN1CCN(Cc2ccc3c(c2)Cc2c(-c4ccc(CNC(=O)Nc5ccc(C(F)(F)F)cc5)s4)n[nH]c2-3)CC1
29 | 83 | 59 |  |  |  | CN1CCN(Cc2ccc3c(c2)-c2n[nH]c(-c4ccc(CN(C)C(=O)Nc5ccc(F)cc5)s4)c2C3)CC1
30 | 33 | 25 |  |  |  | CN1CCN(Cc2ccc3c(c2)Cc2c-3n[nH]c2-c2ccc(CN(C)C(=O)Nc3cc(F)cc(C(F)(F)F)c3)s2)CC1
31 | 64 | 36 |  |  |  | CN1CCN(Cc2ccc3c(c2)-c2n[nH]c(-c4ccc(CN(C)C(=O)Nc5ccc(Cl)cc5)s4)c2C3)CC1
32 | 36 | 28 |  |  |  | CN1CCN(Cc2ccc3c(c2)-c2n[nH]c(-c4ccc(CN(C)C(=O)Nc5ccc(Cl)c(Cl)c5)s4)c2C3)CC1
33 | 11500 | 24 |  |  |  | Cc1ccc(NC(=O)NCc2ccc(-c3[nH]nc4c3Cc3cc(CN5CCN(C)CC5)ccc3-4)s2)cc1
34 | 863 | 17 |  |  |  | CN1CCN(Cc2ccc3c(c2)Cc2c-3n[nH]c2-c2ccc(CNC(=O)Nc3cccc(C(F)(F)F)c3)s2)CC1
35 | 14 | 18 |  | 259 |  | CN1CCN(Cc2ccc3c(c2)-c2n[nH]c(-c4ccc(CN(C)C(=O)Nc5cccc(C(F)(F)F)c5)s4)c2C3)CC1
36 | 20 | 38 |  |  |  | CN1CCN(Cc2ccc3c(c2)-c2n[nH]c(-c4ccc(CN(C)C(=O)Nc5cccc(Cl)c5)s4)c2C3)CC1
37 | 2900 | 86 |  |  |  | Cc1cccc(NC(=O)NCc2ccc(-c3n[nH]c4c3Cc3cc(CN5CCN(C)CC5)ccc3-4)s2)c1
38 | 1670 | 27 |  |  |  | Cc1cc(C)cc(NC(=O)NCc2ccc(-c3n[nH]c4c3Cc3cc(CN5CCN(C)CC5)ccc3-4)s2)c1
39 | 59 | 75 |  |  |  | CCCN(Cc1ccc(-c2[nH]nc3c2Cc2cc(CN4CCN(C)CC4)ccc2-3)s1)C(=O)Nc1cccc(C)c1
40 | 25 | 19 |  |  |  | CN1CCN(Cc2ccc3c(c2)-c2n[nH]c(-c4ccc(CN(C)C(=O)Nc5ccc(OC(F)(F)F)cc5)s4)c2C3)CC1
